Assay: gradient 5% acetonitrile 3 min, to 50% in 2 min, to 85% in 15 min, held 3 min, 100 µL/min
Conditions: column: Zorbax Extend-C18 2.1 x 50 mm; eluents: water / acetonitrile, 0.1% formic acid
Summary of the method: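 Retention times come from adduct peaks that were picked computationally and then checked by hand. The standards, pure and pooled in mixtures of ~100 molecules, were run on a Zorbax Extend-C18 column (2.1 × 50 mm, 1.8 μm) at 100 μL/min with water and acetonitrile, each with 0.1% formic acid. Detection was by quadrupole time-of-flight mass spectrometry in positive and negative ionization mode, with a dead volume of 40 μL and a dwell volume of 900 μL.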

| Structure (SMILES) | RP-LC retention time [s] |
| --- | --- |
| O=C(NCc1csc(C2CCCN(C(=O)c3ccccc3)C2)n1)C1CC1 (stereo not drawn) | 693 |
| Cc1[nH]c(-c2ccc(Cl)cc2)cc1C(=O)NC1CCCCC1 | 990 |
| COc1ccc(-n2c(=O)n(C)c(=O)c3cc(C(=O)Nc4ccccc4)cnc32)cc1 | 862 |
| Cc1nn(CCC(=O)Nc2ccccc2Cl)c(=O)c2nn(-c3ccccc3)c(C)c12 | 827 |
| Cc1cccc(-n2c(=O)c3c(cc(C)n3C)n(CC(=O)Nc3ccc(C)cc3C)c2=O)c1 | 912 |
| CC(C)Cc1ccc(S(=O)(=O)N(C)CC2CCOCC2)cc1 | 1010 |
| CC(C)c1noc(-c2cccnc2N2CCCN(Cc3cccc(C(F)(F)F)c3)CC2)n1 | 794 |
| Cc1ccc(NC(=O)N(C)CCc2noc(COc3ccccc3)n2)cc1 | 892 |
| COc1ccc(CNC(=O)c2ccc3c(c2)CC(=O)N3C)cc1 | 696 |
| Cc1ccccc1-c1nc(C)c(C(=O)NC(C)C)s1 | 903 |
| Cc1cc(-c2nnc(-c3ccccc3)o2)c(C)n1CC(=O)N1CCN(c2ccccn2)CC1 | 649 |
| Cc1cc(S(=O)(=O)N2CCc3c(c(-c4nnc(-c5ccccc5)o4)nn3C)C2)ccc1F | 703 |
| CC(C)NC(=O)N(C1CC1)C1CCOC2(CCN(C(=O)C3CCCC3)CC2)C1 (stereo not drawn) | 814 |
| Cc1ccc(Cl)cc1N1C(=O)CN(S(C)(=O)=O)CC1(C)C(=O)NC1CCCCC1 (stereo not drawn) | 880 |
| COc1ccc(OC)c(N2C=C(C#N)S(=O)(=O)c3ccc(C)cc32)c1 | 925 |
| COc1ccc(-c2noc(Cn3ncn4nc(-c5ccc(F)cc5)cc4c3=O)n2)cc1OC | 1000 |
| Cc1ccc(S(=O)(=O)N2CCC(n3cnc4c(C)cccc4c3=O)CC2)cc1 | 929 |
| CC1CCN(C(=O)C2=NN(Cc3ccc(F)cc3)c3ccccc3S2(=O)=O)CC1 | 1000 |
| Cc1csc(-c2cc(S(=O)(=O)NCC(C)C)cn2CC(=O)N2CCCCC2)n1 | 926 |
| COc1ccc(CC(C)(O)CNC(=O)c2cc(C)oc2C)cc1 (stereo not drawn) | 739 |
| Cc1ccc(CNC(=O)C2CCN(S(=O)(=O)c3ccc4c(c3)NC(=O)C(C)O4)CC2)cc1 (stereo not drawn) | 824 |
| Cc1ccccc1S(=O)(=O)N1CCC(CCC(=O)NC2CC2)CC1 | 791 |
| CCC1=NS(=O)(=O)c2cccnc2N1c1ccc2c(c1)OCCO2 | 800 |
| COc1ccc(CCC(=O)N2CCCC2c2c(C)noc2C)cc1 (stereo not drawn) | 868 |
| Cn1ccc(C(=O)Nc2ccc(S(C)(=O)=O)cc2)n1 | 613 |

| Structure (SMILES) | RP-LC retention time [s] |
| --- | --- |
| CCc1cccc(NC(=O)Cn2nc(N3CCC(C)CC3)c3ccccc3c2=O)c1 | 1220 |
| O=C(NCCN1CCOCC1)c1cc2sccc2n1Cc1ccc(Cl)cc1 | 713 |
| Cc1cc(C)cc(C(=O)Nc2ccc3c(c2)Sc2ncccc2C(=O)N3C)c1 | 888 |
| CC1CCN(c2ncc3c(n2)CCC(C(=O)NCCC2=CCCCC2)C3)CC1 (stereo not drawn) | 974 |
| COc1ccc2c(c1)C1(CCN(C(=O)NCc3ccc(F)cc3)C1)C(=O)N2C (stereo not drawn) | 755 |
| O=C(NCC1CC1)C1CCN(C(=O)c2ncn3c2COC(c2ccccc2)C3)CC1 (stereo not drawn) | 681 |
| Cc1nnc(CNC(=O)c2cc(-c3ccccc3)nn2C)o1 | 646 |
| CN1CCN(c2ncncc2N2CCC(C(=O)N3CCCCC3)CC2)CC1 | 557 |
| CN(CCCNC(=O)C1CCc2nc(N3CCCC3)ncc2C1)c1ccccc1 (stereo not drawn) | 560 |
| CCn1cc(C(=O)NCc2cccc(C)c2)c2cccnc21 | 812 |
| O=C(NCc1cc(F)cc(F)c1)C1CC(=O)N(c2ccc3c(c2)CCN3C(=O)C2CC2)C1 (stereo not drawn) | 767 |
| Fc1ccc(C(OCCCc2cnc[nH]2)c2ccc(F)cc2)cc1 | 833 |
| O=C(NC1CCN(c2cc(-c3ccccc3)[nH]n2)C1)c1cccs1 (stereo not drawn) | 630 |
| COc1ccc2cc(C(=O)N3CCC(CC(=O)N4CCN(c5ccccn5)CC4)CC3)[nH]c2c1 | 623 |
| Cc1nc(-c2ccccc2F)sc1C(=O)NC(C)C | 888 |
| COc1cc(Cl)ccc1-c1nc(-c2ccc3c(c2)ncn3CCC(=O)N2CCCC2)no1 | 786 |
| Cc1cccc(NC(=O)c2ccc(=O)n(Cc3ccc(F)cc3)n2)n1 | 800 |
| Cc1cccc(S(=O)(=O)Nc2ccc3c(c2)CCC(=O)N3C)c1 | 758 |
| Cc1ccc(-n2ncc3c(=O)n(Cc4nc(-c5ccccc5)no4)cnc32)cc1 | 1080 |
| CCn1c(=O)sc2cc(S(=O)(=O)N3CCC(C(=O)Nc4cccc(C)n4)CC3)ccc21 | 768 |
| CC(C)(C)C(=O)NC1CCN(C(=O)C2CC2)C1 (stereo not drawn) | 623 |
| CN(C)C(=O)Oc1cc(OC(=O)N(C)C)cc(C(O)CNC(C)(C)C)c1 (stereo not drawn) | 688 |
| O=C(CCc1csc(NS(=O)(=O)c2ccccc2)n1)Nc1nc2ccccc2s1 | 730 |
| Cc1ccc(CNC(=O)N2c3ccccc3CC2c2nc(C3CC3)no2)cc1 (stereo not drawn) | 972 |
| O=C(NC1CCCC1)c1cn(Cc2ccccc2)cc2c(=O)n(-c3ccccc3)nc1-2 | 1060 |

Other lines, results leading:

| RP-LC retention time [s] | Structure (SMILES) |
| --- | --- |
| 1270 | Cc1ccc(-c2nnc(Cc3nc(-c4cccc(Br)c4)no3)o2)cc1C |
| 985 | CCOC(=O)c1c(C)c(CCC(=O)N2CCCCCC2)n(CC)c1C |
| 895 | COc1ccc(NS(=O)(=O)c2c(C)nn(-c3ccc(-c4ccccc4)nn3)c2C)cc1OC |
| 864 | COc1ccc(C2CC(=O)N(c3ccc(OC)cc3)C(=O)C2)cc1 |
| 779 | Cc1nc(C)c(-c2ccc(SCC(=O)N3CCCc4ccccc43)nn2)s1 |
| 661 | Cc1oc(-c2ccc(C(=O)NCCN3CCN(C)CC3)cc2)nc1CSc1ccccc1 |
| 835 | CNC(=O)N1CCCC(c2cccc(C(=O)NCc3ccc(OC(C)C)cc3)c2)C1 (stereo not drawn) |
| 1070 | CCOC(=O)N1CCN(C(=O)Cc2c(C)nn(-c3nc(-c4ccc(C)cc4)cs3)c2C)CC1 |
| 1040 | CCc1sc(NC(=O)CS(=O)(=O)c2ccc(C)cc2)nc1-c1ccccc1 |
| 1010 | Cc1oc(-c2ccccc2)nc1Cn1cnc2nc3c(cc2c1=O)CC(C)CC3 (stereo not drawn) |
| 1020 | Cc1ccccc1NC(=O)N1CCc2nc(-c3ccc(Cl)cc3)ncc2C1 |
| 757 | CN[C@@H](C)C(=O)N[C@H]1CN(C(=O)CC(C)C)CC[C@H]2CC[C@@H](C(=O)NC(c3ccccc3)c3ccccc3)N2C1=O |
| 998 | COc1ccc(NC(=O)c2cc(C(F)(F)F)n(C)n2)c(OC)c1 |
| 939 | CCCn1cc(CCNS(=O)(=O)c2ccc(C)c(Cl)c2)c2cccnc21 |
| 573 | CCc1cc(C(=O)N2CCN(c3ccccn3)CC2)nc2ccnn12 |
| 714 | COC(=O)c1ccc2c(=O)n(-c3ccc(C)c(F)c3)c(N3CCN(c4ccccn4)CC3)nc2c1 |
| 794 | CCC(=O)c1cn(CC(=O)NCc2ccc3c(c2)OCCCO3)c2ccccc12 |
| 577 | Cc1cc(NCCCC(=O)NC2CC2)n2nc(-c3cccnc3)nc2n1 |
| 594 | CCOc1ccccc1NC(=O)N1CC(n2ccnc2)C1 |

| RP-LC retention time [s] | Structure (SMILES) |
| --- | --- |
| 766 | O=C(c1cc(F)cc(F)c1)N1CCC(n2c(-c3ccco3)nc3cccnc32)C1 (stereo not drawn) |
| 647 | Cc1cc(=O)n(CC(=O)NCc2ccc(F)cc2)c(N2CCOCC2)n1 |
| 908 | N#CCCSc1ccccc1NC(=O)c1ccc(Cl)s1 |
| 612 | O=C(Cn1cccc1-c1nc(-c2ccc(Cl)cc2)cs1)NCCCN1CCOCC1 |
| 768 | Cc1ccc(S(=O)(=O)N2CCC3(CC2)NCCN=C3NCc2ccccc2Cl)cc1C |
| 899 | O=C(Nc1ccc(F)c(F)c1)C(=O)c1ccc[nH]1 |
| 667 | COc1cc(O)ccc1-c1nc2cccc(C)n2c1Nc1ccccc1C |
| 585 | CC1CCCN(CCCNC(=O)C2CCCN(c3ncnc4c3nc3n4CCCCC3)C2)C1 (stereo not drawn) |
| 783 | COc1ccc(-c2csc(Nc3cc(C)ccn3)n2)cc1 |
| 782 | CCN(c1ccccc1C)S(=O)(=O)c1cc(-c2[nH]ncc2C(=O)N(C)C)oc1C |
| 1110 | Fc1ccc(C2Cn3nnc(-c4nc(-c5ccccc5F)no4)c3CO2)cc1 (stereo not drawn) |
| 607 | CC(C)n1nnc2cc(S(=O)(=O)N(C)CC(=O)N3CCN(c4ccccn4)CC3)ccc21 |
| 782 | Cc1ccc(CNC(=O)C2CCCN(C(=O)C3Sc4ccccc4NC3=O)C2)cc1 (stereo not drawn) |
| 837 | CC1=C(c2ccc(C)cc2)S(=O)(=O)N=C1N1CCCN(C(=O)c2ccccc2)CC1 |
| 644 | Cc1nc(-c2ccc(S(=O)(=O)N3CCN(c4ccc(N5CCOCC5)nn4)CC3)cc2)co1 |
| 900 | CSc1cccc(NC(=O)Cc2csc(SCC(=O)Nc3ccc(C)cc3)n2)c1 |
| 684 | Cc1noc(C2CN(C(=O)c3cnn(C)c3)CC23CCCC3)n1 (stereo not drawn) |
| 1270 | COc1ccccc1N1CCN(c2nc3c(c(Nc4ccccc4)n2)C(=O)CCC3)CC1 |
| 691 | Cc1ccn2cc(-c3ccc(NS(=O)(=O)c4cc(Cl)ccc4Cl)cc3)nc2n1 |
